# In patent US11369568B2, “Microparticles comprising a sulphur-containing compound” (NOVABIOTICS LIMITED, priority 2016, dated 2022):
# What was measured:
# [1] = tested on: P. aeruginosa ATCC27853; test: Mouse IN neutropenic lung burden model, Lynovex/Lactose study; format: in vivo, Pseudomonas aeruginosa; settings: CD1 mice, 24 h post-infection
# Method: Animals were immunosuppressed/pre-conditioned with either 200 mg/kg or 150 mg/kg cyclophosphamide. Lynovex, chemical name cysteamine, and vehicle were either prepared either as Lynovex and lactose vehicle, or Lynovex and mannitol-based vehicle (both provided by Upperton (Upperton product)). These were prepared for treatment and vehicle-control alone respectively, and in combination. Tobramycin was prepared as an inhalation formulation in lactose. All treatments were administered using a Penn Century device. Phosphate buffered saline (PBS) and Pseudomonas selective agar were required for bacterial tissue burden.
# (§1) Male CD1 mice (n =6 for treatment groups, plus five in pre-treatment group, totalling 35 mice) were used in this study. On day −4, the mice were immunosuppressed/pre-conditioned with 200 mg/kg cyclophosphamide intraperitoneally; and with 150 mg/kg cyclophosphamide intraperitoneally on day-1. An infection was established with P. aeruginosa ATCC27853, with an inoculum of 5×10^6 cfu/ml, administered intranasally in a volume of 40 μl following anaesthetisation with a ketamine/xylazine anaesthetic cocktail for 15 minutes, for the Lynovex prepared in lactose study, and an inoculum of 4×10^6 for the Upperton Lynovex product.
# Treatment. All treatments were administered intratracheally using a Penn Century device.
# Lynovex (cysteamine) was administered at 1.5 mg alone, and in combination with lactose at the following concentrations: Lynovex 0.75 mg+2.25 mg lactose powder, Lynovex 1.5 mg+1.5 mg lactose powder, Lynovex 2.25 mg+0.75 mg, along with a vehicle only control of 3 mg lactose. In addition, Tobramycin at 188 μg/dose was administered, as an inhaled formulation which was mixed with lactose to aid measurement. The treatments were administered approximately 5 minutes after infection.
# The lung tissue burden of each animal, at the clinical end point of 24 h post-infection, was determined. The lungs were homogenised in 2 ml PBS, serially diluted in PBS and plated onto Pseudomonas selective agar before quantification after 24-48 h at 37° C.
# [2] = Mouse weights recorded before and after infection; format: in vivo; settings: infected CD1 mice, Upperton product study (FIG. 6)
# Method: as §1
# In a different study, Lynovex was administered at the following doses: 3 mg 5% Lynovex and 3 mg 10% Lynovex. Lynovex in combination with Tobramycin as follows: 3 mg 5% Lynovex+Tobramycin 0.188 mg in 1.5 mg vehicle, 3 mg 10% Lynovex+Tobramycin 0.188 mg in 1.5 mg Vehicle (mannitol-based, provided by Upperton) and a Tobramycin only control (0.188 mg/dose in lactose vehicle). The treatments were administered once approximately 10 minutes after infection.
# Additionally, mouse weights were recorded before and after infection. Mice treated with vehicle, Lynovex monotherapy or Tobramycin monotherapy lost weight following infection. […]
SMILES,"lung burden compared to vehicle ([1]; 1.5 mg intratracheal, P=0.0072)","lung burden compared to vehicle ([1]; 2.25 mg intratracheal, P=0.0349)","lung burden compared with vehicle-treated mice ([1]; 0.188 mg inhalation formulation, intratracheal, P=0.0097 Kruskal Wallis test)",mouse weight following infection [2]
"NCCS [Lynovex, cysteamine]",reduced the lung burden,reduced the lung burden,,
NC[C@H]1O[C@H](O[C@H]2[C@H](O)[C@@H](O[C@H]3O[C@H](CO)[C@@H](O)[C@H](N)[C@H]3O)[C@H](N)C[C@@H]2N)[C@H](N)C[C@@H]1O [Tobramycin],,,statistically significant reduction in lung burden,lost weight
